# What was measured:
# [1] = test system: human, dermal fibroblasts (BJ cell line); test: Extracellular acidification rate (glycolysis) of fibroblasts, XF Extracellular Flux Analyzer; format: cell-based
# Method: (§1) With regard to the fibroblasts discussed above in FIGS. 5A, 5B, SC, 5D, 5E, 6, 7A, 7B, 7C, 7D, 7E and 8 frozen, human dermal fibroblasts were obtained from the BJ cell line commercially available from ATCC, Bethesda, Md. The fibroblasts were grown to 70-80% confluence in a fibroblast culture medium of Eagle's Minimum Essential Medium (“EMEM”) supplemented with 10% fetal bovine serum (“FBS”) and gentamicin/amphotericin B ×500 solution (EMEM and FBS are available from ATCC and gentamicin/amphotericin B ×500 solution is available from Invitrogen). […] Each well included 100 μL of the fibroblast medium described above. A test medium was made from Dulbecco's Modified Eagle Medium (available from Seahorse Bioscience), 25 mM Glucose and 1 mM pyruvate. The test medium was warmed to 37° C. and the pH adjusted to 7.4. The cells were grown and plated at 37° C. and 5% CO2 air. The fibroblast medium in the wells was replaced by the test medium 1 hour prior to taking measurements. Oxygen consumption rate and extracellular acidification rate may be detected using an XF Extracellular Flux Analyzer or equivalent. The device should be capable of non-lethally and simultaneously detecting metabolic indicators of the oxphos and glycolysis pathways in a controlled environment, as well as providing […]. The cells may be provided in a multi-well plate suitable for use with the instrument (e.g., 24-well or 96 well plate) and washed prior to testing. The cells may be washed by any suitable means known in the art (e.g., using a Seahorse Biosciences XF prep station). It may be desirable to use a suitable prep station such as an XF prep station available from Seahorse Biosciences). When washing the cells, it may be desirable to remove the medium from the wells and wash the cells three times with a suitable amount of test medium (e.g., 180 μL in a 96-well plate or 600 μL in a 24-well plate). After washing the cells, a suitable amount (e.g., 180 μL) of an appropriate test medium is placed in each well, and the cells are equilibrated at 37° C. in a CO2-free incubator for 1-1.5 hours prior to taking placing the plate in the instrument for testing. Following the equilibration period, load the plate containing the cells into the instrument and equilibrate according to manufacturer's instructions. The entire test is conducted at 37° C. In some embodiments, the instrument may be to provide a three minute mix cycle, a two minute wait cycle, and a 3 minute measurement cycle for keratinocytes and a two minute mix cycle, two minute wait cycle, and 3 minute measurement cycle for fibroblasts. The cycles should be repeated for at least 88 minutes. It is to be appreciated that the cycles and times may be modified according to cell type and experiment design, as desired. The following example illustrates how the method herein can be used to identify synergistic combinations of skin care actives. Hydrogen peroxide is a well known ROS, and is used in this example to illustrate the undesirable metabolic effects associated with exposure of a cell to an oxidative stressor. The hydrogen peroxide was prepared at 10X working concentration in the fibroblast test medium described above. The test agents are niacinamide (also known as vitamin B3) and tocoquinone both commercially available from Sigma. The test agents were each prepared at 10× the final working concentration in the fibroblast test medium described above to provide a test agent solution. The stressor solution and the test agent solutions were both warmed to 37° C. and pH adjusted to 7.4. The cells are frozen, human, dermal fibroblasts obtained from ATCC (BJ cell line). The cells were cultured and prepared according to the test method described above. The fibroblasts were plated in Gelatin-coated, 96-well plate. Each well contained approximately 4×10^4 cells and 180 μL of fibroblast test medium (i.e., Seahorse Biosciences DMEM, 25 mM glucose and 1 mM pyruvate) at 37° C. and pH 7.4. […]
# [2] = test system: human, dermal fibroblasts (BJ cell line); test: Oxygen consumption rate (oxidative phosphorylation) of fibroblasts, XF Extracellular Flux Analyzer; format: cell-based; set-up: Average OCR value per treatment group: unit not given here; conditions: for effect on reduction in OCR caused by hydrogen peroxide: in combination with 1.5 mM H2O2
# Method: as §1
# [3] = rate number 1, before addition of stressor/test agents (basal)
# [4] = rate number 2, before addition of stressor/test agents (basal)
# [5] = rate number 3, before addition of stressor/test agents (basal, reference)
# [6] = rate number 4, 1.5 mM hydrogen peroxide, 0.25 mM niacinamide, 0.025 mM tocoquinone
# [7] = rate number 5, 1.5 mM hydrogen peroxide, 0.25 mM niacinamide, 0.025 mM tocoquinone
# [8] = rate number 6, 1.5 mM hydrogen peroxide, 0.25 mM niacinamide, 0.025 mM tocoquinone
# [9] = rate number 7, 1.5 mM hydrogen peroxide, 0.25 mM niacinamide, 0.025 mM tocoquinone
# [10] = rate number 8, 1.5 mM hydrogen peroxide, 0.25 mM niacinamide, 0.025 mM tocoquinone
# [11] = rate number 9, 1.5 mM hydrogen peroxide, 0.25 mM niacinamide, 0.025 mM tocoquinone
# [12] = rate number 10, 1.5 mM hydrogen peroxide, 0.25 mM niacinamide, 0.025 mM tocoquinone
# [13] = rate number 11, 1.5 mM hydrogen peroxide, 0.25 mM niacinamide, 0.025 mM tocoquinone
# [14] = rate number 12, 1.5 mM hydrogen peroxide, 0.25 mM niacinamide, 0.025 mM tocoquinone
# [15] = rate number 13, 1.5 mM hydrogen peroxide, 0.25 mM niacinamide, 0.025 mM tocoquinone
# [16] = rate number 14, 1.5 mM hydrogen peroxide, 0.25 mM niacinamide, 0.025 mM tocoquinone
# [17] = rate number 15, 1.5 mM hydrogen peroxide, 0.25 mM niacinamide, 0.025 mM tocoquinone
# [18] = rate number 16, 1.5 mM hydrogen peroxide, 0.25 mM niacinamide, 0.025 mM tocoquinone
# [19] = rate number 17, 1.5 mM hydrogen peroxide, 0.25 mM niacinamide, 0.025 mM tocoquinone
# [20] = rate number 18, 1.5 mM hydrogen peroxide, 0.25 mM niacinamide, 0.025 mM tocoquinone
# [21] = 0.25 mM niacinamide, 0.025 mM tocoquinone
Structure (SMILES),"Average ECAR value per treatment group [1, 3]","Average ECAR value per treatment group [1, 4]","Average ECAR value per treatment group [1, 5]","Average ECAR value per treatment group [1, 6]","Average ECAR value per treatment group [1, 7]","Average ECAR value per treatment group [1, 8]","Average ECAR value per treatment group [1, 9]","Average ECAR value per treatment group [1, 10]","Average ECAR value per treatment group [1, 11]","Average ECAR value per treatment group [1, 12]","Average ECAR value per treatment group [1, 13]","Average ECAR value per treatment group [1, 14]","Average ECAR value per treatment group [1, 15]","Average ECAR value per treatment group [1, 16]","Average ECAR value per treatment group [1, 17]","Average ECAR value per treatment group [1, 18]","Average ECAR value per treatment group [1, 19]","Average ECAR value per treatment group [1, 20]","Average OCR value per treatment group [2, 3]","Average OCR value per treatment group [2, 4]",other results
"OO [hydrogen peroxide, reference compound]",101.82 percentage of rate 3,100.66 percentage of rate 3,100 percentage of rate 3,48.46 percentage of rate 3,29.55 percentage of rate 3,33.64 percentage of rate 3,37.41 percentage of rate 3,28.20 percentage of rate 3,17.74 percentage of rate 3,15.41 percentage of rate 3,14.87 percentage of rate 3,13.82 percentage of rate 3,13.32 percentage of rate 3,12.78 percentage of rate 3,11.82 percentage of rate 3,11.52 percentage of rate 3,11.36 percentage of rate 3,11.57 percentage of rate 3,97.05,99.80,"effect on extracellular acidification rate (glycolysis metabolism) ([1]; 1.5 mM hydrogen peroxide by itself): substantial decrease in extracellular acidification rate; effect on OCR (oxphos metabolism) ([2]; 1.5 mM H2O2 by itself): relatively sharp decrease in OCR followed by a less rapid increase; Average OCR value per treatment group [2, 5]: 100; Average OCR value per treatment group [2, 6]: −139.75; Average OCR value per treatment group [2, 7]: −4.58; Average OCR value per treatment group [2, 8]: −6.07; Average OCR value per treatment group [2, 9]: −24.10; Average OCR value per treatment group [2, 10]: −34.10; Average OCR value per treatment group [2, 11]: −44.54; Average OCR value per treatment group [2, 12]: −53.81; Average OCR value per treatment group [2, 13]: −58.25; Average OCR value per treatment group [2, 14]: −63.85; Average OCR value per treatment group [2, 15]: −70.69; Average OCR value per treatment group [2, 16]: −73.38; Average OCR value per treatment group [2, 17]: −76.46; Average OCR value per treatment group [2, 18]: −76.97; Average OCR value per treatment group [2, 19]: −76.26; Average OCR value per treatment group [2, 20]: −76.76"
NC(=O)c1cccnc1 [niacinamide],107.35 percentage of rate 3,99.41 percentage of rate 3,100 percentage of rate 3,64.35 percentage of rate 3,33.18 percentage of rate 3,34.48 percentage of rate 3,42.19 percentage of rate 3,49.60 percentage of rate 3,55.87 percentage of rate 3,60.52 percentage of rate 3,62.89 percentage of rate 3,60.57 percentage of rate 3,57.46 percentage of rate 3,55.04 percentage of rate 3,52.85 percentage of rate 3,51.52 percentage of rate 3,49.85 percentage of rate 3,47.58 percentage of rate 3,99.16,101.76,"effect on acidification rate (glycolysis metabolism) ([1]; 0.25 mM niacinamide added by itself, no hydrogen peroxide): does not significantly affect glycolysis metabolism; effect on glycolysis metabolism in combination with hydrogen peroxide ([1]; added in combination with 1.5 mM hydrogen peroxide): appears to lessen the detrimental effect of the hydrogen peroxide on glycolysis metabolism; effect on reduction in OCR caused by hydrogen peroxide [2, 21]: appears to lessen the reduction in OCR caused by the hydrogen peroxide; Average OCR value per treatment group [2, 5]: 100; Average OCR value per treatment group [2, 6]: −21.15; Average OCR value per treatment group [2, 7]: 63.31; Average OCR value per treatment group [2, 8]: 60.15; Average OCR value per treatment group [2, 9]: 47.41; Average OCR value per treatment group [2, 10]: 38.52; Average OCR value per treatment group [2, 11]: 34.85; Average OCR value per treatment group [2, 12]: 32.39; Average OCR value per treatment group [2, 13]: 31.10; Average OCR value per treatment group [2, 14]: 32.43; Average OCR value per treatment group [2, 15]: 30.49; Average OCR value per treatment group [2, 16]: 29.48; Average OCR value per treatment group [2, 17]: 28.18; Average OCR value per treatment group [2, 18]: 26.95; Average OCR value per treatment group [2, 19]: 25.83; Average OCR value per treatment group [2, 20]: 23.41"
CC1=C(C)C(=O)C(CCC(C)(O)CCCC(C)CCCC(C)CCCC(C)C)=C(C)C1=O (stereo not drawn) [tocoquinone],107.45 percentage of rate 3,99.58 percentage of rate 3,100 percentage of rate 3,56.77 percentage of rate 3,35.13 percentage of rate 3,32.57 percentage of rate 3,32.46 percentage of rate 3,34.54 percentage of rate 3,36.55 percentage of rate 3,36.68 percentage of rate 3,35.75 percentage of rate 3,32.86 percentage of rate 3,29.78 percentage of rate 3,28.15 percentage of rate 3,28.07 percentage of rate 3,30.73 percentage of rate 3,31.49 percentage of rate 3,31.18 percentage of rate 3,101.04,101.44,"effect on reduction in OCR caused by hydrogen peroxide [2, 21]: appears to lessen the reduction in OCR caused by the hydrogen peroxide about the same or slightly less than the niacinamide; Average OCR value per treatment group [2, 5]: 100; Average OCR value per treatment group [2, 6]: −21.48; Average OCR value per treatment group [2, 7]: 64.55; Average OCR value per treatment group [2, 8]: 68.43; Average OCR value per treatment group [2, 9]: 59.47; Average OCR value per treatment group [2, 10]: 53.35; Average OCR value per treatment group [2, 11]: 49.83; Average OCR value per treatment group [2, 12]: 48.18; Average OCR value per treatment group [2, 13]: 48.82; Average OCR value per treatment group [2, 14]: 49.81; Average OCR value per treatment group [2, 15]: 47.50; Average OCR value per treatment group [2, 16]: 44.97; Average OCR value per treatment group [2, 17]: 41.00; Average OCR value per treatment group [2, 18]: 37.55; Average OCR value per treatment group [2, 19]: 32.67; Average OCR value per treatment group [2, 20]: 28.15"
